# Data: patent publication US8716478B2, “Boron-containing small molecules” (Anacor Pharmaceuticals, Inc., priority 2010, dated 2014)
# Experiments:
# [1] = Pharmacokinetics and oral bioavailability after IV and PO dosing; type: in vivo, female CD-1 mice; settings: plasma
# Description: The objective of this study was to evaluate the pharmacokinetics and oral bioavailability of PDE4 inhibitors following intravenous (IV) administration and oral (PO) doses in female CD-1 mice.
# After dosing, blood samples were collected through 24 h, twice from each animal at specific times (3 mice/time point), into microcentrifuge tubes containing K2EDTA (anticoagulant), stored on wet ice and processed for plasma. The plasma samples were analyzed for concentrations of parent compound by LC/MS/MS using an internal standard/peak area method. Pharmacokinetic analysis of the mean plasma concentration-time profiles following IV and PO administration was performed.
# […] Dosing solutions for intravenous administration were prepared in 55% PEG300/25% PG/20% water. Oral dosing used a suspension prepared in 1% CMC in water with 0.1% Tween 80.
# After dosing, blood samples were collected through 24 h, twice from each animal via retro-orbital bleed (˜0.1 mL, 1st time point) or cardiac puncture (˜0.6 mL, 2nd time point) at specific times (3 mice/time point), into microcentrifuge tubes containing K2EDTA (anticoagulant) and stored on wet ice prior to processing.
# Plasma was prepared by centrifugation of blood samples for 6 min at approximately 2000×g or 6000 rpm at 4° C. All processed plasma samples (˜50 μL and 300 μL) were transferred to analysis tubes, placed on dry ice immediately and later stored at −80° C. until analysis for concentrations of experimental compound by LC/MS/MS.
# Mouse IV clearance, Mouse Oral AUC and Oral Bioavailability are provided below. 6-(1-Hydroxy-1,3-dihydrobenzo[c][1,2]oxaborol-5-yloxy)-2-(2-isopropoxyethoxy)nicotinonitrile (D140) and 6-(1-hydroxy-1,3-dihydrobenzo[c][1,2]oxaborol-5-yloxy)-2-(4-oxopentyloxy)nicotinonitrile (D141) are disclosed in U.S. patent application Ser. No. 12/399,015, filed Mar. 5, 2009.
# [2] = system: human PDE4 enzyme; assay: Phosphodiesterase 4 (PDE4) inhibition, semi-purified enzyme from human U937 cells; type: biochemical; settings: 1 μM cAMP, 20 minutes at 25° C.; read-out: PDE4 IC50
# [3] = system: TNF-α in peripheral blood mononuclear cells (PBMCs); assay: TNF-α inhibition in LPS-stimulated peripheral blood mononuclear cells; type: cell-based; settings: PBMC; PBMCs, LPS 1 μg/mL for 24 h; read-out: Proinflammatory TNF-α IC50
# Outline: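 Pooled human PBMCs (10-20 donors), 5×10^5 cells/well in RPMI with 10% FCS, <2% DMSO final, stimulated with LPS at 1 μg/mL for 24 h with compound. TNF-α in supernatant measured by cytometric bead array; IC50 by four-parameter logistic fit.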
# [4] = system: TNF-α; assay: In vivo TNF-α release in LPS treated mice; set-up: species or system Swiss Webster mice
# [5] = system: Brugia malayi; assay: Brugia malayi in vitro assay, adult female worms; settings: 50 uM
# Description: Adult female worms are shipped from TRS Labs Inc. (Nonglak Supakorndej, Lab Director, 295 Research Dr., Athens, Ga. 30605; 706-549-0764) via Fed Ex. Individual worms are shipped in 2 mls vials with RPMI on Mondays and arrive at the […] Center lab on Tuesday mornings. Individual worms are poured into each well (24-well tissue culture plates) to avoid handling worms since they are very delicate and easily broken. Transport media is removed and replaced with 0.5 mls of RPMI-1640 (25 mM HEPES, 2 g/L NaHCO3, Antibiotic/Antimycotic, 5% HI FBS). Worms are maintained in a 37° C. 5% CO2 incubator. Compounds are added directly to each duplicate well (5 ul of 5 mM for a final concentration of 50 uM). DMSO (5 ul) is used as a negative control and Ivermectin (Sigma) is used as a positive control at 100 uM/well and 20 uM/well. Adult filarial nematodes can shed/give birth to microfilarial worms (mf) during the course of the assay. Wells were reviewed for the presence of mf, and the viability of mf, by visual observation of the well on the last day of observation (Day 7). Plates are examined once a day for 4-7 days. […] If changes are observed, worms are more closely examined under a dissecting microscope.
smiles,measurement,setting,value
"CC(=O)CCCOc1nc(Oc2ccc3c(c2)COB3O)c(Cl)cc1C#N [Compound D231, 5-Chloro-6-(1-hydroxy-1,3-dihydrobenzo[c][1,2]oxaborol-5-yloxy)-2-(4-oxopentyloxy)nicotinonitrile]",bioavailability,"[1]; female, CD-1, mouse, po",96%
same,AUC,"[1]; female, CD-1, mouse, 10 mg/kg oral suspension dose",8500 ng·h/mL
same,clearance,"[1]; mouse, 5 mg/kg, female CD-1 mice, intravenous",25 mL/min/kg
same,IC50,[2],0.8 nM
same,IC50,[3],0.44 nM
same,% Inhibition of TNFa Blood Levels in LPS Treated Mice,[4]; Oral Dose 0.03 mg/kg,0%
same,% Inhibition of TNFa Blood Levels in LPS Treated Mice,[4]; Oral Dose 0.1 mg/kg,22%
same,% Inhibition of TNFa Blood Levels in LPS Treated Mice,[4]; Oral Dose 0.3 mg/kg,33.6%
same,% Inhibition of TNFa Blood Levels in LPS Treated Mice,[4]; Oral Dose 1 mg/kg,69.5%
same,% Inhibition of TNFa Blood Levels in LPS Treated Mice,[4]; Oral Dose 1.5 mg/kg,58%
same,% Inhibition of TNFa Blood Levels in LPS Treated Mice,[4]; Oral Dose 3 mg/kg,75.6%
same,% Inhibition of TNFa Blood Levels in LPS Treated Mice,[4]; Oral Dose 5 mg/kg,85.5%
same,% Inhibition of TNFa Blood Levels in LPS Treated Mice,[4]; Oral Dose 10 mg/kg,85.6%
same,% Inhibition of TNFa Blood Levels in LPS Treated Mice,[4]; Oral Dose 15 mg/kg,81.3%
same,% Inhibition of TNFa Blood Levels in LPS Treated Mice,[4]; Oral Dose 30 mg/kg,97.3%
same,"worm activity score / phenotype, Day 3",[5]; trial one,2 to 3
same,"worm activity score / phenotype, Day 3",[5]; trial two,2 to 3
